Converted amounts (≈) assume the structure as drawn. The source made the active and inactive calls. The rule behind the calls is not given here.
Assays:
[1] = tested on: Candida albicans; test: Antifungal activity against Candida albicans SC5314 assessed as inhibition of fungal growth by CLSI M27-A3 guidelines based method; assay type: functional
[2] = tested on: Candida albicans; test: Antifungal activity against Candida albicans GIM 2.194 assessed as inhibition of fungal growth by CLSI M27-A3 guidelines based method; assay type: functional
[3] = tested on: Candida tropicalis; test: Antifungal activity against Candida tropicalis GIM 2.183 assessed as inhibition of fungal growth by CLSI M27-A3 guidelines based method; assay type: functional
[4] = tested on: Candida parapsilosis; test: Antifungal activity against Candida parapsilosis GIM 2.190 assessed as inhibition of fungal growth by CLSI M27-A3 guidelines based method; assay type: functional; conditions: Lodderomyces parapsilosis
[5] = tested on: Nakaseomyces glabratus; test: Antifungal activity against Candida glabrata assessed as inhibition of fungal growth by CLSI M27-A3 guidelines based method; assay type: functional
[6] = tested on: Pichia kudriavzevii; test: Antifungal activity against Candida krusei GIM 2.1 assessed as inhibition of fungal growth by CLSI M27-A3 guidelines based method; assay type: functional
[7] = tested on: Cryptococcus neoformans; test: Antifungal activity against Cryptococcus neoformans CGMCC 2.3161 assessed as inhibition of fungal growth by CLSI M27-A3 guidelines based method; assay type: functional
[8] = tested on: Aspergillus fumigatus; test: Antifungal activity against Aspergillus fumigatus cgmcc 3.7795 assessed as inhibition of fungal growth by CLSI M27-A3 guidelines based method; assay type: functional
[9] = tested on: Candida albicans; test: Antifungal activity against fluconazole-resistant Candida albicans CaR assessed as inhibition of fungal growth by CLSI M27-A3 guidelines based method; assay type: functional
[10] = tested on: Candida albicans; test: Antifungal activity against fluconazole and iodiconazole resistant Candida albicans clinical isolate 17# assessed as inhibition of fungal growth by CLSI M27-A3 guidelines based method; assay type: functional
[11] = tested on: Candida albicans; test: Antifungal activity against fluconazole-resistant Candida albicans clinical isolate 901 assessed as inhibition of fungal growth by CLSI M27-A3 guidelines based method; assay type: functional
[12] = tested on: Candida albicans; test: Antifungal activity against fluconazole-resistant Candida albicans clinical isolate 904 assessed as inhibition of fungal growth by CLSI M27-A3 guidelines based method; assay type: functional
[13] = tested on: Candida albicans; test: Antifungal activity against fluconazole-resistant Candida albicans clinical isolate 632 assessed as inhibition of fungal growth by CLSI M27-A3 guidelines based method; assay type: functional
[14] = tested on: Candida albicans; test: Antifungal activity against fluconazole-resistant Candida albicans clinical isolate 100 assessed as inhibition of fungal growth by CLSI M27-A3 guidelines based method; assay type: functional
[15] = tested on: Candida albicans; test: Antifungal activity against fluconazole-resistant Candida albicans clinical isolate 103 assessed as inhibition of fungal growth by CLSI M27-A3 guidelines based method; assay type: functional
[16] = tested on: Candida albicans; test: Antifungal activity against fluconazole-resistant Candida albicans clinical isolate 311 assessed as inhibition of fungal growth by CLSI M27-A3 guidelines based method; assay type: functional
[17] = tested on: Candida albicans; test: Fungicidal activity against Candida albicans SC5314 incubated for 48 hrs by PDA plate based method; assay type: functional
[18] = tested on: Candida albicans; test: Fungicidal activity against fluconazole and iodiconazole resistant Candida albicans clinical isolate 17# incubated for 48 hrs by PDA plate based method; assay type: functional
[19] = tested on: Candida albicans; test: Fungicidal activity fluconazole and iodiconazole resistant Candida albicans clinical isolate 17# assessed as decrease in number of fungi at 1 times of MIC measured within 24 hrs by time-kill kinetics assay; assay type: functional, organism-based
[20] = tested on: Candida albicans; test: Fungicidal activity fluconazole and iodiconazole resistant Candida albicans clinical isolate 17# assessed as decrease in number of fungi at 2 times of MIC measured within 24 hrs by time-kill kinetics assay; assay type: functional, organism-based
[21] = tested on: Candida albicans; test: Fungicidal activity fluconazole and iodiconazole resistant Candida albicans clinical isolate 17# assessed as decrease in number of fungi at 4 times of MIC measured within 24 hrs by time-kill kinetics assay; assay type: functional, organism-based
[22] = tested on: Candida albicans; test: Effect on sterol composition in Candida albicans SC5314 assessed as ergosterol content at 0.05 microg/ml measured after 16 hrs by GC-MS analysis (reference value: 96.96 %); assay type: functional; conditions: dose 0.05 µg/ml
[23] = tested on: Candida albicans; test: Effect on sterol composition in Candida albicans SC5314 assessed as 14alpha-demethyllanosterol content at 0.05 microg/ml measured after 16 hrs by GC-MS analysis (reference value: […] %); assay type: functional; conditions: dose 0.05 µg/ml
[24] = tested on: Candida albicans; test: Effect on sterol composition in Candida albicans SC5314 assessed as obtusifoliol content at 0.05 microg/ml measured after 16 hrs by GC-MS analysis relative to control; assay type: functional; conditions: dose 0.05 µg/ml
[25] = tested on: Candida albicans; test: Effect on sterol composition in Candida albicans SC5314 assessed as lanosterol content at 0.05 microg/ml measured after 16 hrs by GC-MS analysis relative to control; assay type: functional; conditions: dose 0.05 µg/ml
[26] = tested on: Candida albicans; test: Effect on sterol composition in Candida albicans SC5314 assessed as eburicol content at 0.05 microg/ml measured after 16 hrs by GC-MS analysis relative to control; assay type: functional; conditions: dose 0.05 µg/ml
[27] = tested on: Candida albicans; test: Effect on sterol composition in Candida albicans SC5314 assessed as other sterols content at 0.05 microg/ml measured after 16 hrs by GC-MS analysis (reference value: 1.06 %); assay type: functional; conditions: dose 0.05 µg/ml
[28] = tested on: Candida albicans; test: Antibiofilm activity against fluconazole-resistant Candida albicans CPCC400616 assessed as inhibition of metabolic activity of biofilm measured after 6 hrs by XTT reduction assay; assay type: functional
[29] = tested on: Candida albicans; test: Antibiofilm activity against fluconazole-resistant Candida albicans CPCC400616 assessed as inhibition of metabolic activity of biofilm measured after 24 hrs by XTT reduction assay; assay type: functional
[30] = tested on: Candida albicans; test: Inhibition of hyphal formation in fluconazole-resistant Candida albicans CPCC400616 assessed as reduction in invasive ability at 2 microg/ml measured after 4 hrs by inverted microscopic analysis; assay type: functional, organism-based; conditions: dose 2.0 µg/ml
[31] = Cytotoxicity against human NCI-H460 cells assessed as inhibition of cell growth incubated for 72 hrs by MTT assay; assay type: toxicity, cell-based
[32] = Cytotoxicity against human OVCAR-3 cells assessed as inhibition of cell growth incubated for 72 hrs by MTT assay; assay type: toxicity, cell-based
[33] = Cytotoxicity against HUVEC cells assessed as inhibition of cell growth incubated for 72 hrs by MTT assay; assay type: toxicity, cell-based; conditions: human
[34] = Cytotoxicity against HEK293T cells assessed as inhibition of cell growth incubated for 72 hrs by MTT assay; assay type: toxicity, cell-based, HEK-293T; conditions: human
[35] = Metabolic stability in human liver microsomes assessed as half-life preincubated for 10 mins followed by NADPH addition and measured after 60 mins by LC-MS/MS analysis; assay type: ADME, Microsome; conditions: time 70 min
[36] = Metabolic stability in human liver microsomes assessed as parent compound remaining preincubated for 10 mins followed by NADPH addition and measured after 60 mins by LC-MS/MS analysis; assay type: ADME, Microsome; conditions: time 70 min, read-out: Stability
[37] = Half-life in Sprague-Dawley rat at 10 mg/kg, po by LC-MS/MS analysis; assay type: ADME, organism-based; conditions: in vivo
[38] = Tmax in Sprague-Dawley rat at 10 mg/kg, po by LC-MS/MS analysis; assay type: ADME, organism-based; conditions: in vivo
[39] = Cmax in Sprague-Dawley rat at 10 mg/kg, po by LC-MS/MS analysis; assay type: ADME, organism-based; conditions: in vivo
[40] = AUC (0 to infinity) in Sprague-Dawley rat at 10 mg/kg, po by LC-MS/MS analysis; assay type: ADME, organism-based; conditions: in vivo
[41] = Oral bioavailability in Sprague-Dawley rat at 10 mg/kg by LC-MS/MS analysis; assay type: ADME, organism-based; conditions: in vivo
[42] = Half-life in Sprague-Dawley rat at 3 mg/kg, iv by LC-MS/MS analysis; assay type: ADME, organism-based; conditions: in vivo
[43] = Tmax in Sprague-Dawley rat at 3 mg/kg, iv by LC-MS/MS analysis; assay type: ADME, organism-based; conditions: in vivo
[44] = Cmax in Sprague-Dawley rat at 3 mg/kg, iv by LC-MS/MS analysis; assay type: ADME, organism-based; conditions: in vivo
[45] = AUC (0 to infinity) in Sprague-Dawley rat at 3 mg/kg, iv by LC-MS/MS analysis; assay type: ADME, organism-based; conditions: in vivo
[46] = Clearance in Sprague-Dawley rat at 3 mg/kg, iv by LC-MS/MS analysis; assay type: ADME, organism-based; conditions: in vivo
[47] = MRT(0 to t) in Sprague-Dawley rat at 3 mg/kg, iv by LC-MS/MS analysis; assay type: ADME, organism-based; conditions: in vivo
[48] = Apparent volume of distribution in Sprague-Dawley rat at 3 mg/kg, iv by LC-MS/MS analysis; assay type: ADME, organism-based; conditions: in vivo, read-out: Vz
[49] = tested on: Candida albicans; test: Selectivity ratio of MFC for fungicidal activity against Candida albicans SC5314 to MIC80 for antifungal activity against Candida albicans SC5314; assay type: functional
[50] = tested on: Candida albicans; test: Fungicidal activity fluconazole and iodiconazole resistant Candida albicans clinical isolate 17# assessed as decrease in number of fungi at 8 times of MIC measured within 24 hrs by time-kill kinetics assay; assay type: functional, organism-based

C[C@@H](N(C)Cc1ccc(C#Cc2ccc(F)cc2F)cc1)[C@](O)(Cn1cncn1)c1ccc(F)cc1F
MIC80 [1]: 0.006 µg/mL (≈ 0.0118 µM)
MIC80 [2]: 0.006 µg/mL (≈ 0.0118 µM)
MIC80 [3]: 0.006 µg/mL (≈ 0.0118 µM)
MIC80 [4]: 0.006 µg/mL (≈ 0.0118 µM)
MIC80 [5]: 0.01 µg/mL (≈ 0.0197 µM)
MIC80 [6]: 0.01 µg/mL (≈ 0.0197 µM)
MIC80 [7]: 0.013 µg/mL (≈ 0.0256 µM)
MIC80 [8]: 0.05 µg/mL (≈ 0.0983 µM)
MIC80 [9]: 0.25 µg/mL (≈ 0.492 µM)
MIC80 [10]: 0.25 µg/mL (≈ 0.492 µM)
MIC80 [11]: 4 µg/mL (≈ 7.87 µM)
MIC80 [12]: 8 µg/mL (≈ 15.7 µM)
MIC80 [13]: 4 µg/mL (≈ 7.87 µM)
MIC80 [14]: 4 µg/mL (≈ 7.87 µM)
MIC80 [15]: 4 µg/mL (≈ 7.87 µM)
MIC80 [16]: 8 µg/mL (≈ 15.7 µM)
MFC [17]: 0.125 µg/mL (≈ 0.246 µM)
MFC [18]: 1 µg/mL (≈ 1.97 µM)
Activity [19]: Active
Activity [20]: Active
Activity [21]: Active; Effectively Kills Fungal Cells In Viable Colony Counts
Activity [22]: 0.29%
Activity [23]: 2.79%
Activity [24]: 13.69%
Activity [25]: 9.97%
Activity [26]: 70.13%
Activity [27]: 3.13%
MIC50 [28]: 0.5 µg/mL (≈ 0.983 µM)
MIC50 [29]: 4 µg/mL (≈ 7.87 µM)
inhibition [30]: Active; Blockade Of Morphological Transformation Observed
IC50 at 72 h [31]: > 10 µM
IC50 at 72 h [32]: > 10 µM
IC50 at 72 h [33]: > 10 µM
IC50 at 72 h [34]: > 10 µM
half-life [35]: 0.503 h
remaining at 1 h [36]: 25.9%
half-life [37]: 4.08 h
Tmax [38]: 2.33 h
Cmax [39]: 283 ng/mL
AUC(0-inf) [40]: 1600 ng·h/mL
bioavailability [41]: 26.3%
half-life [42]: 6.57 h
Tmax [43]: 4.98 min
Cmax [44]: 2460 ng/mL
AUC(0-inf) [45]: 1830 ng·h/mL
clearance [46]: 27.5 mL/min/kg
MRT last [47]: 1.92 h
Vd [48]: 15.7 L/kg

CN(Cc1ccc(I)cc1)CC(O)(Cn1cncn1)c1ccc(F)cc1F (stereo unspecified)
MIC80 [1]: 0.013 µg/mL (≈ 0.0268 µM)
MIC80 [2]: 0.025 µg/mL (≈ 0.0516 µM)
MIC80 [3]: 0.013 µg/mL (≈ 0.0268 µM)
MIC80 [4]: 0.025 µg/mL (≈ 0.0516 µM)
MIC80 [5]: 0.2 µg/mL (≈ 0.413 µM)
MIC80 [6]: 0.2 µg/mL (≈ 0.413 µM)
MIC80 [7]: 0.1 µg/mL (≈ 0.206 µM)
MIC80 [8]: 0.25 µg/mL (≈ 0.516 µM)
MIC80 [9]: 2 µg/mL (≈ 4.13 µM)
MIC80 [10]: 0.25 µg/mL (≈ 0.516 µM)
MIC80 [11]: > 64 µg/mL
MIC80 [12]: 8 µg/mL (≈ 16.5 µM)
MIC80 [13]: 16 µg/mL (≈ 33 µM)
MIC80 [14]: 2 µg/mL (≈ 4.13 µM)
MIC80 [15]: 32 µg/mL (≈ 66.1 µM)
MIC80 [16]: > 64 µg/mL
MFC [17]: 32 µg/mL (≈ 66.1 µM)
Selectivity ratio [49]: >256
MFC [18]: 32 µg/mL (≈ 66.1 µM)
Activity [50]: inactive
MIC50 [28]: 8 µg/mL (≈ 16.5 µM)
MIC50 [29]: 16 µg/mL (≈ 33 µM)
IC50 at 72 h [31]: > 10 µM
IC50 at 72 h [32]: > 10 µM
IC50 at 72 h [33]: > 10 µM
IC50 at 72 h [34]: > 10 µM
half-life [35]: 0.34 h
remaining at 1 h [36]: 13.1%
